This test has as its target T1, GST-Bfl-1 (Homo sapiens, UniProt Q16548).
T1 construct: lacking their C-terminal transmembrane domains (about the last 20 amino acids) (“ΔTM”); made in house; host or cells: XL-1 Blue E. coli, pGEX 4T-1
T1 sequence (Q16548 1-155 limits assumed): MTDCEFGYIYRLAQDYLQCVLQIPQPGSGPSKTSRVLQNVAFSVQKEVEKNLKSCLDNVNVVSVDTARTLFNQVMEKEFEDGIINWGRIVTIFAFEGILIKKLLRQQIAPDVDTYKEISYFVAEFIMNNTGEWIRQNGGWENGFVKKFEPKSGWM
The experiment in a line: Bfl-1/FITC-Bid BH3 competitive fluorescence polarization assay. Type of test: binding. As to conditions: primary HTS hits, MLSCN library (PubChem SIDs), Table 5B. How it is done:
A FPA was performed to determine the binding affinity of FITC-Bid BH3 peptide to Bcl-2 proteins. […] IC50 determinations were performed using GraphPad Prism software (GraphPad, Inc., San Diego, Calif.). FPA competition assays were performed using the same procedure described above, except that 100 nM of GST-Bfl-1 protein in a volume of 45 μl was incubated with 5 μl (50 μM) test compounds in DMSO per well for 30 min prior to addition of 50 μl (5 nM) FITC-Bid BH3 peptide. The final DMSO concentration was 5% when the reactions brought to fall volume of 100 μl. Fluorescence polarization was measured after 10 min. Compounds that reduced the fluorescence polarization by 50% were considered hits.
A general note: In fluorescence polarisation assays a small probe gives low polarisation when free and higher when bound to something large.

Data on 53 compounds can be found in patent US20090118135A1, “METHODS AND COMPOUNDS FOR REGULATING APOPTOSIS” (The Burnham Institute, priority 2007, published 2009).

Each structure is given as a SMILES string.

Take `COCCn1c(SCC(=O)Nc2ncc(Cl)c(C)c2Cl)nc2ccccc21` [Compound 3717339]: the “% Activity” value came out at 64.7% and the FRatio is on record as 0.94.
Take `CC(=N)/C(C#N)=C(/O)CSc1nnc(NC(C)C)s1` [Compound 3717601]: the “% Activity” value is recorded as 84.1% and the FRatio is listed as 0.47.
Take `CCn1ccc(C(=O)Nc2ccc(S(=O)(=O)Nc3ccccc3OC)cc2)n1` [Compound 4241115]: the “% Activity” value is 82% and the FRatio amounted to 0.87.
With `O=C(CSc1nc(O)c2ccccc2n1)c1ccc(O)c(O)c1` [Compound 4242102], the “% Activity” value was found to be 64.2% and the FRatio was determined as 0.57.
As to `O=C(O)c1cccc(-n2cccc2/C=N/O)c1` [Compound 4243236], the “% Activity” value was determined as 70% and the FRatio is 0.86.
On to `CSc1ccccc1NC(=O)c1noc2c1CCC2` [Compound 4244309], for which the “% Activity” value is 75.7% and the FRatio is given as 0.44.
With `COc1ccc(C(N)CCc2ccc(C)o2)cc1` (stereo not shown) [Compound 4244526], the “% Activity” value is listed as 67.6% and the FRatio is listed as 0.84.
With `Cc1c(C(=O)OCC2CCCO2)[nH]c2c1C(=O)CC(c1ccco1)C2` (stereo not shown) [Compound 4244684], the “% Activity” value came out at 54.3% and the FRatio is reported as 0.79.
The like results for `COc1ccc(-c2coc3c(CN4CCCCC4)c(O)c(CN4CCCCC4)c(O)c3c2=O)cc1` [Compound 4244723] were, in that order, 82.5% and 0.51.
As to `O=C(NCc1ccccn1)c1ccc2nc(-c3ccco3)c(-c3ccco3)nc2c1` [Compound 4245216], the “% Activity” value is given as 107.1% and the FRatio is on record as 1.18.
Regarding `COC(=O)c1ccccc1NC(=O)c1noc2c1CCC2` [Compound 4245926], the “% Activity” value came to 72.8% and the FRatio stood at 0.46.
For the compound `Cc1cc(C)c2cc3c(ccn3C3OC[C@H](O)[C@H](O)[C@H]3O)cc2n1` (stereo partly shown) [Compound 4247900], the “% Activity” value worked out at 52.1% and the FRatio was 1.1.
As for `COc1ccc(-c2nc3n(n2)C(c2cccnc2)C(C(N)=O)=C(C)N3)cc1` (stereo not shown) [Compound 4250160], the “% Activity” value is on record as 88.5% and the FRatio was 0.81.
The like results for `O=C(NCCCN1CCN(Cc2ccccc2)CC1)C1CCN(c2nnc(-n3cccc3)s2)CC1` [Compound 4250401] were, in that order, 50.8% and 0.86.
`COC(=O)CNc1c(-c2ccccn2)nc2ccc(Br)cn12` [Compound 4251133]: the “% Activity” value was determined as 51.2% and the FRatio is given as 1.16.
On to `O=c1c2cc(N3CCOCC3)ccc2[nH]c(=S)n1CCCN1CCCCCC1` [Compound 4251175], for which the “% Activity” value was 62.3% and the FRatio is reported as 0.65.
As to `C=CCNS(=O)(=O)c1nc(C)c(Cl)c(C)c1C#N` [Compound 4251530], the “% Activity” value is listed as 69.9% and the FRatio is given as 0.59.
On to `CCOC(=O)N1CCN(c2cc(NCCC(=O)O)c3c4c(onc24)-c2ccccc2C3=O)CC1` [Compound 4252106], for which the “% Activity” value stood at 78.1% and the FRatio was 0.86.
Regarding `Nc1nc(-c2ccco2)nn1C(=O)CCc1ccccc1` [Compound 4254649], the “% Activity” value turned out to be 63.2% and the FRatio was found to be 0.83.
The like results for `Cc1cc(C)nc(Nc2ccc(N3CCCC3)cc2)n1` [Compound 4256031] were, in that order, 108.1% and 0.2.
For `CCOc1ccc(C(=O)Nc2ccc(N3CCN(C)CC3)cc2)cc1Br` [Compound 4256635], the “% Activity” value was 70% and the FRatio came out at 0.53.
Consider `Cc1ccc(CNc2ccc3c(c2)OCO3)cc1` [Compound 4257119], for which the “% Activity” value is 50.6% and the FRatio was 1.2.
On to `COc1ccc2c(c1)c(=O)oc1cc(OCC(=O)N3CCC(C)CC3)ccc12` [Compound 4257486], for which the “% Activity” value was 104.8% and the FRatio is on record as 0.49.
For `Cc1ccc(C)n1-c1cccc(C(=O)O)c1` [Compound 4257870], the “% Activity” value was 95.8% and the FRatio came to 0.65.
On to `O=C(Nc1ccccc1)c1ccc2nc(-c3ccco3)c(-c3ccco3)nc2c1` [Compound 4258186], for which the “% Activity” value was 52.2% and the FRatio is recorded as 0.88.
On the same counts, the results for `O=C(Nc1ccc2nc(-c3ccco3)c(-c3ccco3)nc2c1)N1CCCCCC1` [Compound 4258795] are 83.2% and 0.96.
In the case of `COCc1cc(C2SCC(=O)Nc3c2c(O)nn3C(C)C)ccc1OC` (stereo not shown) [Compound 4258907], the “% Activity” value worked out at 67.1% and the FRatio is given as 1.2.
Consider `CCCCCc1nnc(NC(=O)Cc2cccs2)s1` [Compound 4259217], for which the “% Activity” value stood at 69.2% and the FRatio was 0.51.
The like results for `CC(=O)c1sc2nc(SCC(=O)N3CCCCC3)nc(O)c2c1C` [Compound 4259313] were, in that order, 57% and 0.82.
Consider `Cc1nc2ccc(C(=O)O)cc2c2c1CC(C)S2` (stereo not shown) [Compound 4259932], for which the “% Activity” value was 54.7% and the FRatio is given as 0.6.
For `c1ccc(CSc2nnc(-c3ccco3)c(-c3ccco3)n2)cc1` [Compound 4260465], the “% Activity” value was found to be 93.8% and the FRatio came out at 0.72.
On the same counts, the results for `CCOc1ccc2nc(O)c(O)nc2c1` [Compound 4261310] are 69.6% and 1.46.
The like results for `CCCC1=C(C(=O)OCC)C(c2cc(Cl)cc(OC)c2OCC(=O)OCC)NC(=O)N1` (stereo not shown) [Compound 4262430] were, in that order, 50.9% and 1.19.
On the same counts, the results for `COC(=O)c1cccc(NC(=O)CSc2nc(C)cc(O)n2)c1` [Compound 4262437] are 59.9% and 0.64.
Consider `Cc1ccc2cccc(S(=O)(=O)Nc3ccc4c(c3)OCO4)c2n1` [Compound 4262919], for which the “% Activity” value worked out at 80.6% and the FRatio is reported as 0.67.
Take `CCOC(=O)c1ccc2c(c1)C1C=CCC1C(C(=O)O)N2` (stereo not shown) [Compound 4263567]: the “% Activity” value is 111.5% and the FRatio amounted to 0.4.
The like results for `c1cc2c3c(cccc3c1)NC1(CCCCCC1)N2` [Compound 4263637] were, in that order, 64.3% and 0.58.
`COc1ccc(N2C(=O)c3cccc4cccc(c34)C2=O)nn1` [Compound 4265126]: the “% Activity” value was 58.8% and the FRatio was 0.88.
On the same counts, the results for `COc1ccccc1-c1nnc2sc(-c3cnccn3)nn12` [Compound 4265558] are 75.3% and 0.59.
On to `Cc1cc2c(cc1C)NC(c1c(C)n(C)n(-c3ccccc3)c1=O)C1=C(O)CC(C)(C)CC1=N2` (stereo not shown) [Compound 4265815], for which the “% Activity” value came out at 58.3% and the FRatio was 1.46.
On to `COc1ccc(Nc2cc(C)nc3nc(C)nn23)cc1Cl` [Compound 7967129], for which the “% Activity” value worked out at 82.3% and the FRatio is 1.11.
As for `CN(C)c1ccc(NC(=O)Cn2cc3c(n2)CCCC3)cc1` [Compound 7968138], the “% Activity” value is 57.6% and the FRatio is given as 0.56.
On the same counts, the results for `COc1ccc(N2Cc3cccc(C(=O)O)c3C2=O)cc1` [Compound 7969281] are 113.7% and 0.86.
Take `O=C(NCCN1CCCCCC1)C1CCC(CNS(=O)(=O)c2cccc3cccnc23)CC1` (stereo not shown) [Compound 7969436]: the “% Activity” value is reported as 51.8% and the FRatio stood at 0.97.
As for `Cc1csc2nc(CNS(=O)(=O)N(C)C)cn12` [Compound 7970333], the “% Activity” value is 53.8% and the FRatio is listed as 0.96.
In the case of `CCOC(=O)C1=C(C)S/C(=C\N(C)C)C1=O` [Compound 7972859], the “% Activity” value amounted to 68.4% and the FRatio is 0.91.
Take `Cc1cccc(OCC(=O)Nc2ccc(S(=O)(=O)N3CCCC3)cc2)c1` [Compound 7973703]: the “% Activity” value came out at 79.2% and the FRatio is 0.82.
For `C=CCSc1nnc2nc3c(nn12)c1cc(C)ccc1n3CC=C` [Compound 7973953], the “% Activity” value was found to be 69.4% and the FRatio amounted to 0.82.
Take `COc1ccc(NC(=O)c2cnn3c(C(F)(F)F)cc(-c4ccco4)nc23)cc1OC` [Compound 7974080]: the “% Activity” value worked out at 52% and the FRatio is recorded as 0.9.
For `Cc1ccc(O)c(/N=C/C2=C(O)c3ccccc3C2=O)c1` [Compound 7974116], the “% Activity” value worked out at 56% and the FRatio is on record as 0.92.
As to `Cc1ccc(OCC(=O)Nc2ccc(N3CCCC3)cc2)cc1C` [Compound 7974807], the “% Activity” value was found to be 90.6% and the FRatio is reported as 0.76.
The like results for `Cc1cccc(OCC(=O)Nc2ccc(N3CCCC3)cc2)c1C` [Compound 7975075] were, in that order, 76.1% and 0.72.
For `O=C1CCCC2=C1C(c1ccco1)Nc1ccc3ccccc3c12` (stereo not shown) [Compound 7975176], the “% Activity” value is reported as 52.2% and the FRatio was 0.73.
